Results: US9149468B2, “Multicomponent crystals made ([2-amino-6-(4-fluoro-benzylamino)-pyridin-3-yl]-carbamic acid ethyl ester and 2-[2-[(2,6-dichlorphenyl)-amino]-phenyl]-acetic acid” (TEVA GmbH, priority 2010, dated 2015)
Where a name gives a salt, the structure may show the parent alone. Read-outs that look alike come from different tables or passages of the source.

Experiments:
[1] = rat, 35 mg per kg flupirtine maleate combined with various dosages of NSAIDS; cited from earlier work
[2] = mice, 15 mg per kg flupirtine maleate combined with various dosages of NSAIDS; cited from earlier work
[3] = pain and inflammation model (methods of DE 36 65 538); format: in vivo; details: animal model
Excerpt: The methods disclosed therein are herewith incorporated as a reference, […]

Row | SMILES | effect on antinociceptive activity of paracetamol, acetyl salicylic acid, and diclofenac [1] | effect on antinociceptive activity of paracetamol, acetyl salicylic acid, and diclofenac [2] | effects in pain and inflammation model compared with the test results of DE 36 65 538 [3]
1 | CCOC(=O)Nc1ccc(NCc2ccc(F)cc2)nc1N [flupirtine maleate] | enhances | enhances | 
2 | CCOC(=O)Nc1ccc(NCc2ccc(F)cc2)nc1N.O=C(O)Cc1ccccc1Nc1c(Cl)cccc1Cl [multicomponent crystal according to the invention of ([2-amino-6-(4-fluoro-benzylamino)-pyridin-3-yl]carbamic acid ethyl ester and 2-[2-[(2,6-dichlorophenyl)-amino]-phenyl]acetic acid] |  |  | qualitatively comparable
